The text below walks through data of ChEMBL document CHEMBL1914379, “Challenges of drug discovery in novel target space. The discovery and evaluation of PF-3893787: a novel histamine H4 receptor antagonist” (Bioorg Med Chem Lett, 2011).

Series [1] has as its target T1, Histamine H4 receptor (Homo sapiens, UniProt Q9H3N8). The series can be described thus: Antagonist activity at full length human H4R expressed in HEK293 cells assessed as reversal of forskolin-induced cAMP production by CRE-beta-lactamase reporter gene assay. The series is classed as functional, cell-based. Background: cAMP levels reflect the balance of adenylyl cyclase and phosphodiesterase activity.

Series [2] in a line: Volume of distribution in dog blood at 3 mg/kg, iv. Type of series: ADME, organism-based, Canis lupus familiaris. Details: dose 3 mg/kg, route intravenous.
The nature of series [3]: Blood clearance in dog at 3 mg/kg, iv. The series is classed as ADME, organism-based, Canis lupus familiaris. Details: dose 3 mg/kg, route intravenous.
Series [4] deals with Rattus norvegicus. The series can be described thus: Toxicity in po dosed rat assessed as decrease in erythropoiesis for 4 days. Type of series: organism-based, Erythrocyte. The note with it: in vivo, 96 h.
The test system of series [5] is Rattus norvegicus. The series can be described thus: Toxicity in po dosed rat assessed as lymphoid depletion from gut for 4 days. The series is classed as organism-based. The conditions noted are these: in vivo, 96 h.
The test system of series [6] is Canis familiaris. The series can be described thus: Toxicity in dog assessed as adverse events dosed orally for 7 days. Type of series: organism-based, Canis lupus familiaris. The note with it: in vivo, po, 168 h.
Series [7] is described as follows: Volume of distribution in rat blood at 1 mg/kg, iv and 1 mg/kg, po. The series is classed as ADME, organism-based.
Series [8] can be described thus: Blood clearance in rat at 1 mg/kg, iv and 1 mg/kg, po. Type of series: ADME, organism-based.
In series [9] the test system is Rattus norvegicus. Kind of series: Toxicity in po dosed rat assessed as lymphoid depletion from spleen for 4 days. The series is classed as organism-based. The note with it: in vivo, 96 h.
Series [10] in a line: Lipophilicity, log D of the compound. The series is classed as physicochemical. The note with it: octanol/water.
Series [11] can be described thus: Oral bioavailability in rat at 1 mg/kg. Type of series: ADME, organism-based. The conditions noted are these: in vivo.
For series [12], the target named is T1, Histamine H4 receptor. The series can be described thus: Displacement of [3H]-histamine from full length human H4R expressed in HEK293 cells. The series is classed as cell-based. A general note: Displacement assays read how much labelled ligand stays bound in the presence of the test substance.
A short description of series [13]: Half life in dog at 3 mg/kg, iv. The series is classed as ADME, organism-based, Canis lupus familiaris. Details: dose 3 mg/kg, route intravenous. The conditions noted are these: in vivo.
The nature of series [14]: Metabolic stability in rat liver microsomes. Type of series: ADME, Microsome. The note with it: read-out: Stability. (Microsomes from liver hold many membrane-bound enzymes, among them those of drug oxidation.)
Series [15] has as its system Rattus norvegicus. The series can be described thus: Toxicity in rat assessed as vacuolation at high dose, po for 7 days. The series is classed as organism-based. The conditions noted are these: in vivo, 168 h.
In series [16] the test system is Rattus norvegicus. Kind of series: Toxicity in po dosed rat assessed as lymphoid depletion from thymus for 4 days. Type of series: organism-based. The note with it: in vivo, 96 h.
Series [17] deals with Rattus norvegicus. The series can be described thus: Toxicity in po dosed rat assessed as decrease in reticulocyte counts for 4 days. The series is classed as organism-based. The conditions noted are these: in vivo, 96 h.
The nature of series [18]: Half life in rat at 1 mg/kg, iv and 1 mg/kg, po. Type of series: ADME, organism-based. The conditions noted are these: in vivo.
Series [19] can be described thus: Metabolic stability in human liver microsomes. Type of series: ADME, Microsome. The note with it: read-out: Stability.
Series [20] relates to Liver microsomes. The series can be described thus: Metabolic stability in human liver microsomes assessed as reactive metabolite generation. Type of series: ADME, Microsome.
A short description of series [21]: Volume of distribution in rat at 1 mg/kg, iv and 1 mg/kg, po. The series is classed as ADME, organism-based. The note with it: in vivo.
Series [22] is described as follows: Clearance in rat at 1 mg/kg, iv and 1 mg/kg, po. The note with it: in vivo. The series is classed as ADME, organism-based.
In series [23] the test system is Rattus norvegicus. Kind of series: Induction of pro-inflammatory response in rat dosed orally for 4 days. The series is classed as functional, organism-based.
Series [24] deals with T1, Histamine H4 receptor. Kind of series: Antagonist activity at full length human H4R expressed in HEK293 cells assessed as inhibition of forskolin-induced cAMP responsive element-beta-lactamase activity at 15 uM. The series is classed as functional, cell-based.

Structures are written as SMILES. Calls of active or inactive are those of the source. The calls are words filed in the database; no cut-off is given here.

T1 sequence (Q9H3N8 whole entry): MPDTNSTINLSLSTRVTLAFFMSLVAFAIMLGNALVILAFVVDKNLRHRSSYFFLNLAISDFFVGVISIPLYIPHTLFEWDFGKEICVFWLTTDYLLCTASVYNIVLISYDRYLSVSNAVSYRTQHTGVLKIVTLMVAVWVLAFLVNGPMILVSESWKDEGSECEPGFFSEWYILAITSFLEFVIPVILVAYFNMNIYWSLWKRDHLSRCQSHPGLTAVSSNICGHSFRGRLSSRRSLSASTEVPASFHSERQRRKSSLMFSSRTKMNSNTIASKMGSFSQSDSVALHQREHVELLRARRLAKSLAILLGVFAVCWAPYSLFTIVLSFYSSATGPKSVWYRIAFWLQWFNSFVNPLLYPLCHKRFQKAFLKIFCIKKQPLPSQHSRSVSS

The term Ki denotes a dissociation constant, usually derived from enzyme kinetics or from competition with a known ligand. With `CN1CCN(c2cc(NCCC(C)(C)C)ncn2)CC1`, the inhibitory constant (Ki) in series [1] stood at 92 nM.

What is called logD is the decadic logarithm of the distribution of all forms, ionised or not, between an organic phase and buffer at a given pH. As usually defined, the bioavailability is dose-corrected exposure relative to a reference, in per cent. Higher therefore signals much systemic uptake. As usually defined, the half-life is how long it takes for the measured level to halve. Read a high half-life as slow loss. Turning to `CNC1CN(c2cc(NCC(C)(C)C)nc(N)n2)C1`, the Vd in [2] was determined as 48 L/kg; in [7], 49 L/kg. Besides, the figures for the clearance in series [3] and in [8] were 30 mL/min/kg and 77 mL/min/kg, respectively. Besides, the Activity result in series [4] is “Non-toxic”; in series [5], “Non-toxic”; in [6], “Non-toxic”; in series [9], “Non-toxic”; in series [15], “Toxic”; in series [16] it was “Non-toxic”. Moreover, the Activity entry in series [17] was “Non-toxic”. The molecule also registered a logD in series [10] of 0.7. The molecule further registered a bioavailability in series [11] of 57%. In addition, the Ki turned out to be 1.7 nM in [12] and 0.034 nM in series [1]. For the same molecule, the half-life in series [13] was 19 h; in [18], 6.9 h. Also, the microsomal CLint is under 8.5 µL/min/mg in series [14] and under 7 µL/min/mg in series [19].

Consider `CN1C[C@@H]2CN(C(=O)c3nc4cc(F)ccc4[nH]3)C[C@@H]2C1`, for which the Ki in series [12] was found to be 83 nM; in series [1] it was 39 nM. Moreover, the figures for the microsomal CLint in [14] and in series [19] were 40 µL/min/mg and under 7 µL/min/mg, respectively. For the same molecule, the Stability result in series [20] was “Stable”.

Consider `CNC1CN(c2cc(NCCC(C)(C)C)nc(N)n2)C1`, for which the Activity result in series [4], in series [5], in series [6], in series [9], in series [16] and in series [17] was “Non-toxic” each time. The Ki in series [1] was found to be 1.5 nM. Moreover, the microsomal CLint in series [14] was determined as 33 µL/min/mg.

For the molecule `CN1C[C@@H]2CN(C(=N)c3nc4cc(F)c(F)cc4[nH]3)C[C@@H]2C1`, the Activity entry in series [4] was “Toxic”; in [5], “Dose-dependent effect”; in series [9], “Dose-dependent effect”; in [16] it was “Dose-dependent effect”; in [17], “Toxic”. This molecule also came in with a bioavailability in [11] of 20%. The Ki in [12] and in [1] was 10 nM each time. In addition, the Vd in [21] was 31 L/kg. In series [22], the clearance was found to be 31 mL/min/kg. Further, the microsomal CLint in [14] is 10 µL/min/mg; in series [19] it was under 7 µL/min/mg. The result in series [23] was Active. Also, the half-life in [18] is 12 h.

In general, inhibition refers to the change of the read-out against control, counted positive when it falls. In the case of `CC(C)(C)CCNc1cc(NC2CCN(Cc3ccc(CO)o3)C2)ncn1` (racemic), in series [24], the inhibition was found to be 73%.
